Measurements from publication PMC10330135 (Chemistry (Weinheim an der Bergstrasse, Germany), 2023).

How the values were obtained:
Assay type in all cases: biochemical
PtmJ = molecular target: T1, PtmJ (Streptomyces pactum, UniProt A8R0J5); experiment: enzymatic glycosylation
T1 sequence (A8R0J5 1-318): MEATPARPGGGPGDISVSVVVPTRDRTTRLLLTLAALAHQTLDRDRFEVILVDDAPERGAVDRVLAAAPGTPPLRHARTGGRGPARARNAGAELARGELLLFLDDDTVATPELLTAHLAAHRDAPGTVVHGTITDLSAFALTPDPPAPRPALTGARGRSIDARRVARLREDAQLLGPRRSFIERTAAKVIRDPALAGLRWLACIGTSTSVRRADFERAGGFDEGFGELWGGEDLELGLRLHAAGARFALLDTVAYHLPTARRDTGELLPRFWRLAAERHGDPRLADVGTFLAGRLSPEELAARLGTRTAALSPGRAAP

PtmN = molecular target: T2, PtmN (Streptomyces pactum, UniProt A8R0J9); experiment: mass spectrometry of product; settings: NAD+; cofactor recycling as for GlcNAc-3AAP
T2 sequence (A8R0J9 1-351): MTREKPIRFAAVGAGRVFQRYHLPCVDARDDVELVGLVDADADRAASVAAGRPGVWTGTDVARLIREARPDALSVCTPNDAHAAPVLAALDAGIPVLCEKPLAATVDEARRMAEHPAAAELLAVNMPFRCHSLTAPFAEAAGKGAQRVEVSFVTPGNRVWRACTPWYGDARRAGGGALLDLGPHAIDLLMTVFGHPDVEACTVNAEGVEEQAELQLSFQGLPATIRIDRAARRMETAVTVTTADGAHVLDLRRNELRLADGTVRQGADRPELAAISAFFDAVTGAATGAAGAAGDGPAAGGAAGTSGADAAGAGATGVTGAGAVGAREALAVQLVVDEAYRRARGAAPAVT

PtmG = molecular target: T3, PtmG (Streptomyces pactum, UniProt A8R0J2); experiment: mass spectrometry of substrate consumption; settings: formed in situ by PtmN, PtmA and PtmB; 10 h with PtmG
T3 sequence (A8R0J2 1-378): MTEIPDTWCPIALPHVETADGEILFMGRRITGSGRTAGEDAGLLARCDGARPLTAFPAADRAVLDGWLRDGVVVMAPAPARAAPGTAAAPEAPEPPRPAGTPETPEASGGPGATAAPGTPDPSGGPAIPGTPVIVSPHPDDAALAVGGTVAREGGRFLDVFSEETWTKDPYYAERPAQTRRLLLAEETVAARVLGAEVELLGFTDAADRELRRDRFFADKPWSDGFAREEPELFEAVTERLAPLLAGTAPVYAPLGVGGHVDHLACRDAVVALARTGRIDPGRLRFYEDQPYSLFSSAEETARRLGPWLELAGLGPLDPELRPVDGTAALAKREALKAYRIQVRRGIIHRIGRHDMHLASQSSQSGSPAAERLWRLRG

CC(=O)NCCSC(=O)c1cccc(N)c1 [3ABA-SNAC]
enzymatic glycosylation; product used in the next reactions (PtmJ): The 3ABA-SNAC was first glycosylated with the glycosyltransferase PtmJ

CC(=O)NCCSC(=O)c1cccc(N[C@@H]2O[C@H](CO)[C@@H](O)[C@H](O)[C@H]2NC(C)=O)c1 [compound 15, GlcNAc-3ABA-SNAC]
mass spectrometry of product (PtmN): reaction of GlcNAc-3ABA-SNAC with PtmN showed an oxidation product

CC(=O)N[C@@H]1[C@@H](NC(N)=O)[C@H](O)[C@@H](CO)O[C@H]1Nc1cccc(C(C)=O)c1 [compound 20, N-carbamoylated GlcNAc-3AAP]
mass spectrometry of substrate consumption (PtmG): after incubation with PtmG, the carbamoylated GlcNAc-3AAP was partially consumed
